Reference: paper PMC5589751, “Synthesis, high-throughput screening and pharmacological characterization of β–lactam derivatives as TRPM8 antagonists” (Scientific Reports, 2017)

Columns and labels:
HEK-CR1 cells = assay: MTT-based assay of cytotoxicity; format: cell-based; details: 24 hours incubation; three concentrations
Experimental: Figure 2S. Effect of derivative 41 and 45 on MTT-based assay of cytotoxicity in HEK-CR1 cells.
A) Cell survival after 24 hours incubation at three concentrations of derivative 41 or B) derivative 45.
Each value is expressed as mean ± SEM. n ≥ 4, ANOVA with Bonferroni post hoc test (*** p < 0.001).
Cell viability assay (MTT)
Cell viability was assessed by the detection of mitochondrial activity in living cells using a modified colorimetric analysis of Blue Tetrazolium Bromide Thiazolyl (MTT). Briefly, HEK293 cells (2 × 10^4 cells/well) were subcultured in 96-well plates, grown until 80–90% confluence, and incubated with increasing concentrations of testing compounds for 24 h. Following treatment, 10 μL of MTT solution (5 mg/mL in phosphate buffered saline) was added to each well and further incubated for 4 h at 37 °C. Subsequently, 100 μL of DMSO was added to each well to dissolve any deposited formazan resulting from cleavage and reduction of MTT by active mitochondrial dehydrogenases. The optical density of each well was measured at 540 nm with a microplate reader (Polastar BMG LABTECH, […]
(1 picture or pasted object on this page, not shown here)

Kinetic solubility = format: physicochemical
TRPV1 = TRPV1 (Rattus norvegicus, UniProt O35433); assay: Ca2+ microfluorography (Fluo-4 NW), capsaicin-induced Ca2+ signal in SH-SY5Y-TRPV1 cells; format: cell-based; details: 50 µM compound; agonist 10 µM capsaicin; SH-SY5Y-TRPV1 cells
TRPV1, sequence (O35433 whole entry): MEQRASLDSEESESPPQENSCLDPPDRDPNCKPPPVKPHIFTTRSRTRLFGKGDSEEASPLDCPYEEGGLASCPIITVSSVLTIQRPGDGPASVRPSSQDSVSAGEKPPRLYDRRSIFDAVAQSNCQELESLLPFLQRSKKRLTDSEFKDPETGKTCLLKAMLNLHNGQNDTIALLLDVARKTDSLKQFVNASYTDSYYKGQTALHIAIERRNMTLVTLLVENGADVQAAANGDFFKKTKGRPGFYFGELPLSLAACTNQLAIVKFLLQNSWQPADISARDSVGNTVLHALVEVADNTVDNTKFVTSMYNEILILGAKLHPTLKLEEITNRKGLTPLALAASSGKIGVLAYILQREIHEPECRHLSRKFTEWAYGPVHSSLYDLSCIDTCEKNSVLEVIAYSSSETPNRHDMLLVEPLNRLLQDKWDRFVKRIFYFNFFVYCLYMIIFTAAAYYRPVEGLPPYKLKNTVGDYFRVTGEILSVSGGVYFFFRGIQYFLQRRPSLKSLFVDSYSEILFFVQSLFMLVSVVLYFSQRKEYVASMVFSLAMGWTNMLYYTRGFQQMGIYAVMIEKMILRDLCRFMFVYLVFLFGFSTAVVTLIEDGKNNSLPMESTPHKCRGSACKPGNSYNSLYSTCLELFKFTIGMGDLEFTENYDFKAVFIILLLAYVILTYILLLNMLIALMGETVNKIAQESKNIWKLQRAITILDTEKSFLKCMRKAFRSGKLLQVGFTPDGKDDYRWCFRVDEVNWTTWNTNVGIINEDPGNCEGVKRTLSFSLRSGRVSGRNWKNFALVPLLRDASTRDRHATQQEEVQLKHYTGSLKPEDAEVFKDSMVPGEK
Experimental: All compounds were tested at two different concentrations (50 and 5 µM) on TRPM8 and TRPV1 channels stably expressed in HEK and SH-SY5Y cell lines, respectively. The agonist induced intracellular Ca^2+ signals were measured using a fluorescent Ca^2+ indicator, in the absence and in the presence of test compounds. […] The obtained results were compared to those of 68 (AMTB, TRPM8 antagonist) and ruthenium red (TRPV1 antagonist). The IC50 values for the assay on TRPM8 were also calculated.
For fluorescence assays, cells expressing TRP channels (SH-SY5Y-TRPV1 and HEKCR1-TRPM8) were seeded in 96-well plates (Corning Incorporated, Corning, NY) at a cell density of 40,000 cells 2 days before treatment. The day of treatment the medium was replaced with 100 µL of the dye loading solution Fluo-4 NW supplemented with probenecid 2.5 mM. Then the compounds dissolved in DMSO were added at the desired concentrations and the plate(s) were incubated at 37 °C in a humidified atmosphere of 5% CO2 for 60 minutes.
The fluorescence was measured using instrument settings appropriate for excitation at 485 nm and emission at 535 nm (POLARstar Omega BMG LABtech). […] The corresponding antagonist
(10 µM Ruthenium Red forTRPV1 and 10 µM 68 for TRPM8) was added for the blockade. The changes in fluorescence intensity were recorded during 15 cycles more. […] The blocking percentage was calculated as follow (Eq. 1):1 %TRPBlockedResponse=(1−Fo−Fi/FCo−FCi)∗100 where Fo is the fluorescence after the addition of menthol in the presence of the compound, Fi is the fluorescence before the addition of menthol in the presence of the compound, FCo is the fluorescence after the addition of menthol in the absence of the compound, FCi is the fluorescence before the addition of menthol in the absence of the compound. To guarantee that our results were useful we only used assays with a Z-factor higher than 0.5.
The statistical Z-factor to determine the quality of the HTS experiment as was calculated using the equation 2:2 Z‐factor=1−3∗(SDmax+SDmin)/Meanmax−Meanmin where: Meanmax is the mean of the maximum fluorescence in the presence of agonist, SDmax is the standard deviation of the maximum fluorescence in the presence of agonists, Meanmin is the mean of the maximum fluorescence in the presence of agonist and antagonist and SDmin is the standard deviation of the maximum fluorescence in the presence of agonist and antagonist.

CC(C)(C)OC(=O)N[C@@H](CCN1C(=O)CC1(Cc1ccccc1)C(=O)OCc1ccccc1)C(=O)OCc1ccccc1 (stereo partly drawn) [Compound 41, 4R,S-Benzyl-4-benzyloxycarbonyl-1-[(3′S-benzyloxycarbonyl-3-tert-butoxycarbonylamino-3′-benzyloxycarbonyl)prop-1′-yl]-2-oxoazetidine]
cytotoxicity in the MTT assay (HEK-CR1 cells): did not display apparent cytotoxicity
Kinetic solubility (Kinetic solubility; 1% DMSO): < 10 µM
Kinetic solubility (Kinetic solubility; 5% DMSO): < 10 µM
% Block TRPV1 50 µM (TRPV1): 38.3 ± 17.9%

CC1C(=O)N(CC[C@H](NC(=O)OC(C)(C)C)C(=O)OCc2ccccc2)C1(Cc1ccccc1)C(=O)OCc1ccccc1 (stereo partly drawn) [Compound 45, 4R,S-Benzyl-4-benzyloxycarbonyl-1-[(3′S-benzyloxycarbonyl-3′-tert-butoxycarbonylamino)prop-1′-yl]-(3R,S)-methyl-2-oxoazetidine]
cytotoxicity in the MTT assay (HEK-CR1 cells): did not display apparent cytotoxicity
% Block TRPV1 50 µM (TRPV1): 31.8 ± 6.5%
